{
  "source": "patent US20100016388A1",
  "about": "“Salts of a Selective Beta-2 Andrenoceptor Agonist” (priority 2007, published 2010)",
  "target": "T1, Adrenergic β2 (Homo sapiens, UniProt P07550)",
  "T1 construct": "Adherent H292 cells were removed from tissue culture flasks; endogenous in cells; host or cells: H292 cells",
  "T1 sequence (P07550 whole entry)": "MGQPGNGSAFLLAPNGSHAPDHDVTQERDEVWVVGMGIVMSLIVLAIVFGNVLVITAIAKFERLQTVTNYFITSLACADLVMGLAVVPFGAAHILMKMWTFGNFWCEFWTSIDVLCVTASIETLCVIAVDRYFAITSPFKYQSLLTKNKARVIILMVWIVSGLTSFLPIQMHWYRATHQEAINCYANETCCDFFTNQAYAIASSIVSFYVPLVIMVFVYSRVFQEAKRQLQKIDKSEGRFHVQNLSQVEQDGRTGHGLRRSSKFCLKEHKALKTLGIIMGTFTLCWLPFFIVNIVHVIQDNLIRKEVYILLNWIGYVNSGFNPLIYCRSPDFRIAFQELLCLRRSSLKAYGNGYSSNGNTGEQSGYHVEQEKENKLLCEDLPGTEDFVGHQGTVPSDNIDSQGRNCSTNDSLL",
  "assay": "Adrenergic β2 mediated cAMP production in H292 cells (AlphaScreen)",
  "type": "cell-based",
  "settings": "Intrinsic Activity as a fraction relative to the maximum activity determined for formoterol",
  "experimental": "Adrenergic β2 Mediated cAMP Production\nH292 cells were grown in 225 cm2 flasks incubator at 37° C., 5% CO2 in RPMI medium containing, 10% (v/v) FBS (foetal bovine serum) and 2 mM L-glutamine.\nAdherent H292 cells were removed from tissue culture flasks by treatment with Accutase™ cell detachment solution for 15 minutes. Flasks were incubated for 15 minutes in a humidified incubator at 37° C., 5% CO2. Detached cells were re-suspended in RPMI media (containing 10% (v/v) FBS and 2 mM L-glutamine) at 0.05×10^6 cells per mL. 5000 cells in 100 μL were added to each well of a tissue-culture-treated 96-well plate and the cells incubated overnight in a humidified incubator at 37° C., 5% CO2. The culture media was removed and cells were washed twice with 100 μL assay buffer and replaced with 50 μL assay buffer (HBSS solution containing 10 mM HEPES pH7.4 and 5 mM glucose). […]\nThe concentration of cAMP (cyclic adenosine monophosphate) in the cell lysate was determined using AlphaScreen™ methodology. […] The AlphaScreen™ signal was measured using an EnVision spectrophotometer (Perkin-Elmer Inc.) with the recommended manufacturer's settings. cAMP concentrations were determined by reference to a calibration curve determined in the same experiment using standard cAMP concentrations. […] Intrinsic Activity was expressed as a fraction relative to the maximum activity determined for formoterol in each experiment.",
  "note": "Counter-ions that a name gives are not always drawn.",
  "data": [
    {"smiles": "O=c1[nH]c2c(O)ccc([C@@H](O)CNCCSCCCNCCc3ccccc3Cl)c2s1", "note": "[Compound A, 7-[(1R)-2-({2-[(3-{[2-(2-Chlorophenyl)ethyl]amino}-propyl)thio]ethyl}amino)-1-hydroxyethyl]-4-hydroxy-1,3-benzothiazol-2(3H)-one dihydrobromide]", "values": [
      {"measurement": "β2 Int Act", "result": 0.8}
    ]}
  ]
}
